In PubChem BioAssay (NCI):
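Growth conditions: 96-well plates. Treatment: test compound, 48 hours, 5 concentrations. Analysis: linear interpolation between bracketing concentrations; unreached endpoints set to highest concentration. At the TGI there is no net growth.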

Legend:
Experiment in all cases: NCI tumour cell line growth inhibition, 48 h
A498 renal = tested on: A498 renal
MALME-3M melanoma = tested on: MALME-3M melanoma
HL-60(TB) leukemia = tested on: HL-60(TB) leukemia
SF-539 CNS = tested on: SF-539 CNS
NCI-H522 lung = tested on: NCI-H522 lung
SR leukemia = tested on: SR leukemia
RXF 393 renal = tested on: RXF 393 renal
NCI-H226 lung = tested on: NCI-H226 lung
BT-549 breast = tested on: BT-549 breast
COLO 205 colon = tested on: COLO 205 colon
IGROV1 ovarian = tested on: IGROV1 ovarian
SN12C renal = tested on: SN12C renal
UACC-257 melanoma = tested on: UACC-257 melanoma
NCI-H23 lung = tested on: NCI-H23 lung
HS 578T breast = tested on: HS 578T breast
NCI/ADR-RES ovarian = tested on: NCI/ADR-RES ovarian
MCF7 breast = tested on: MCF7 breast
PC-3 prostate = tested on: PC-3 prostate
SNB-19 CNS = tested on: SNB-19 CNS
U251 CNS = tested on: U251 CNS
HT29 colon = tested on: HT29 colon
UACC-62 melanoma = tested on: UACC-62 melanoma
OVCAR-3 ovarian = tested on: OVCAR-3 ovarian
HOP-92 NSCLC = tested on: HOP-92 NSCLC
T-47D breast = tested on: T-47D breast
HCT-15 colon = tested on: HCT-15 colon
A549 NSCLC = tested on: A549 NSCLC
MDA-MB-435 = tested on: MDA-MB-435
DU-145 prostate = tested on: DU-145 prostate
SK-OV-3 ovarian = tested on: SK-OV-3 ovarian
SNB-75 CNS = tested on: SNB-75 CNS
SF-268 CNS = tested on: SF-268 CNS
MOLT-4 leukemia = tested on: MOLT-4 leukemia
SF-295 CNS = tested on: SF-295 CNS
RPMI-8226 leukemia = tested on: RPMI-8226 leukemia
786-0 renal = tested on: 786-0 renal
MDA-MB-231 breast = tested on: MDA-MB-231 breast
LOX IMVI melanoma = tested on: LOX IMVI melanoma
NCI-H460 lung = tested on: NCI-H460 lung
OVCAR-8 ovarian = tested on: OVCAR-8 ovarian
SK-MEL-28 melanoma = tested on: SK-MEL-28 melanoma
SW-620 colon = tested on: SW-620 colon
CAKI-1 renal = tested on: CAKI-1 renal
TK-10 renal = tested on: TK-10 renal
HCT-116 colon = tested on: HCT-116 colon
HCC-2998 colon = tested on: HCC-2998 colon
M14 melanoma = tested on: M14 melanoma
OVCAR-5 ovarian = tested on: OVCAR-5 ovarian
UO-31 renal = tested on: UO-31 renal
SK-MEL-2 melanoma = tested on: SK-MEL-2 melanoma
ACHN renal = tested on: ACHN renal
HOP-62 NSCLC = tested on: HOP-62 NSCLC
KM12 colon = tested on: KM12 colon
OVCAR-4 ovarian = tested on: OVCAR-4 ovarian
MDA-N = tested on: MDA-N
SK-MEL-5 melanoma = tested on: SK-MEL-5 melanoma
K-562 leukemia = tested on: K-562 leukemia
CCRF-CEM leukemia = tested on: CCRF-CEM leukemia
EKVX NSCLC = tested on: EKVX NSCLC

Measured: TGI

O=c1cc(CO)oc(C(O)c2ccccc2)c1O (stereo unspecified)
not listed: K-562 leukemia | CCRF-CEM leukemia | EKVX NSCLC
> 100 µM: all other assays above

CCOc1ccncc1[N+](=O)[O-]
not listed: COLO 205 colon | OVCAR-3 ovarian | HOP-92 NSCLC | NCI-H460 lung | HCC-2998 colon | OVCAR-4 ovarian
> 100 µM: all other assays above

Cc1cc(C2CC(O)C(CO)O2)c(F)cc1F (stereo unspecified)
not listed: HS 578T breast | RPMI-8226 leukemia | SK-MEL-2 melanoma | SK-MEL-5 melanoma
> 100 µM: all other assays above

CCOC(=O)/C=C/[C@H](O[Si](CC)(CC)CC)C(C)(C)C
50.7 µM: SR leukemia
48.6 µM: CCRF-CEM leukemia
46.2 µM: LOX IMVI melanoma
66.9 µM: MCF7 breast
80.6 µM: SK-MEL-2 melanoma
65.8 µM: U251 CNS
41.3 µM: RPMI-8226 leukemia
not listed: HL-60(TB) leukemia | SK-MEL-28 melanoma | M14 melanoma
> 100 µM: all other assays above

CC(=O)O[C@H]1CC[C@@]2(C)C(=CC[C@@H]3[C@@H]2CC[C@]2(C)NC(=O)/C(=C\c4ccccc4)C[C@@H]32)C1
41.4 µM: 786-0 renal
69.2 µM: T-47D breast
45 µM: OVCAR-8 ovarian
28.9 µM: OVCAR-3 ovarian
27.6 µM: A498 renal
36.2 µM: MALME-3M melanoma
40.8 µM: NCI-H226 lung
62 µM: HCC-2998 colon
55.4 µM: CCRF-CEM leukemia
33.2 µM: MDA-MB-435
39.8 µM: SK-MEL-2 melanoma
37.6 µM: U251 CNS
63.1 µM: NCI/ADR-RES ovarian
33.1 µM: NCI-H23 lung | UACC-62 melanoma | UO-31 renal
95.3 µM: NCI-H460 lung
44.5 µM: PC-3 prostate
53 µM: MDA-MB-231 breast
37.5 µM: SF-295 CNS
48 µM: DU-145 prostate
43.8 µM: OVCAR-4 ovarian
23.2 µM: SK-MEL-5 melanoma
76.1 µM: ACHN renal
64.2 µM: RPMI-8226 leukemia
80.5 µM: TK-10 renal
46.9 µM: HCT-116 colon
31.7 µM: NCI-H522 lung
41.9 µM: SW-620 colon
42.7 µM: KM12 colon
> 100 µM: SR leukemia | K-562 leukemia | MOLT-4 leukemia | CAKI-1 renal
42 µM: IGROV1 ovarian | SN12C renal
37.9 µM: SF-268 CNS
43.9 µM: UACC-257 melanoma
35 µM: OVCAR-5 ovarian
40.4 µM: HCT-15 colon
31.1 µM: SF-539 CNS
38.5 µM: COLO 205 colon | A549 NSCLC
34.2 µM: BT-549 breast
30.5 µM: M14 melanoma
31.8 µM: SNB-19 CNS
30.1 µM: HOP-62 NSCLC
33.4 µM: LOX IMVI melanoma
27.8 µM: RXF 393 renal
32.3 µM: SK-MEL-28 melanoma
42.6 µM: MDA-N
44.3 µM: SK-OV-3 ovarian | SNB-75 CNS
34.8 µM: EKVX NSCLC
59.8 µM: MCF7 breast
31.2 µM: HT29 colon

[N-]=[N+]=NC1C(O)C(CO)OC1n1ccc(=O)[nH]c1=O (stereo unspecified)
not listed: RXF 393 renal
> 875 µM: all other assays above

COc1cc(O)c(C(=O)/C=C/c2ccc(O)cc2)cc1Oc1ccc(/C=C/C(=O)c2ccc(O)cc2O)cc1
18.7 µM: HOP-62 NSCLC
23.6 µM: DU-145 prostate
31 µM: MDA-N
34 µM: HL-60(TB) leukemia
22.6 µM: BT-549 breast
18.3 µM: LOX IMVI melanoma
17.4 µM: M14 melanoma
20.5 µM: SF-268 CNS
38.9 µM: CAKI-1 renal
14.3 µM: SK-MEL-5 melanoma
15.4 µM: COLO 205 colon
26.4 µM: OVCAR-5 ovarian
15.2 µM: SK-MEL-28 melanoma
15.7 µM: ACHN renal
29.4 µM: CCRF-CEM leukemia
38.5 µM: SW-620 colon
17.5 µM: RXF 393 renal
33.2 µM: NCI-H23 lung
16 µM: NCI-H522 lung | OVCAR-4 ovarian
18.2 µM: SF-295 CNS | UO-31 renal
25.7 µM: MDA-MB-435
23.2 µM: UACC-257 melanoma
25.6 µM: TK-10 renal
15.5 µM: KM12 colon
21 µM: HCT-15 colon
26.7 µM: NCI/ADR-RES ovarian
36.7 µM: MDA-MB-231 breast
15 µM: IGROV1 ovarian
19.4 µM: SN12C renal
43.1 µM: SNB-19 CNS
16.2 µM: SF-539 CNS
14.2 µM: HT29 colon
22.2 µM: HOP-92 NSCLC
17.2 µM: U251 CNS
16.1 µM: SR leukemia
38.8 µM: MOLT-4 leukemia
17 µM: OVCAR-3 ovarian
14.1 µM: A498 renal
22.8 µM: K-562 leukemia
27.7 µM: EKVX NSCLC
22.1 µM: PC-3 prostate
20.1 µM: SNB-75 CNS
17.6 µM: MALME-3M melanoma | UACC-62 melanoma | RPMI-8226 leukemia
21.9 µM: SK-MEL-2 melanoma
30.4 µM: NCI-H460 lung
14.7 µM: HCT-116 colon
16.5 µM: 786-0 renal
22.9 µM: MCF7 breast
15.9 µM: SK-OV-3 ovarian
> 50 µM: HS 578T breast | T-47D breast | A549 NSCLC
24.7 µM: OVCAR-8 ovarian
